Reference: the NIST ThermoML archive (doi:10.1016/j.tca.2018.03.014)
Numbers after ± are expanded uncertainties.

Key:
[1] = Molar enthalpy of transition or fusion; conditions: Crystal 2; DSC
[2] = Crystal; DTA

Compound: CCCCCCCCCCCCCCCCCCO [1-octadecanol]
- Molar enthalpy of transition or fusion [1]: 16 ± 0.335 kcal/mol
- Normal melting temperature [2]: 58.10 ± 4 °C
